The values below come from patent US20140323501A1, “AMINO-PROPYLENE-GLYCOL DERIVATIVES, PREPARATION METHOD AND PHARMACEUTICAL COMPOSITION AND USE THEREOF” (INSTITUTE OF MATERIA MEDICA, CHINESE ACADEMY OF MEDICAL …, priority 2011, published 2014).

Series [1] has as its system lymphocyte proliferation / cytotoxic T lymphocytes. Particulars: MLR and CTL; background, Fujita et al.; cited from earlier work.
A further series relates to SD rat heart rate. Nature of the series: Effect of S1P1 receptor agonists on rat heart rate. The conditions noted are these: Table 2; for HR delta %: (lowest heart rate postdose − pre-administration)/pre-administration; for heart rate 0.5 h / heart rate 1 h / heart rate 3 h / heart rate 6 h / heart rate 8 h / heart rate 24 h / heart rate pre-administration: intragastric; for heart rate 0.5 h: 0.5 h after administration; for heart rate 1 h: 1 h after administration; for heart rate 3 h: 3 h after administration; for heart rate 6 h: 6 h after administration; for heart rate 8 h: 8 h after administration; for heart rate 24 h: 24 h after administration; for heart rate pre-administration: before administration. In kind it is in vivo.

Series [2] relates to SD rat peripheral blood lymphocyte counts. Nature of the series: Effect of S1P1 receptor agonists on rat vein (peripheral) blood lymphocyte counts. Type of series: in vivo. The conditions noted are these: Table 1, 10 mg/Kg intragastric; for LYM 0 h: before administration; for LYM 1 h: 1 h after administration; for LYM 2 h: 2 h after administration; for LYM 4 h: 4 h after administration; for LYM 8 h: 8 h after administration; for LYM 12 h: 12 h after administration; for LYM 24 h: 24 h after administration; for compared with 0 h (%) 1 h / compared with 0 h (%) 2 h / compared with 0 h (%) 4 h / compared with 0 h (%) 8 h / compared with 0 h (%) 12 h / compared with 0 h (%) 24 h: lymphocyte count change vs 0 h.
Procedure: 10 mg of drugs were measured and placed in a mortar. After 4 mL of 5‰ CMC-Na were added, homogenous suspension was prepared in the mortar (one drop of twain-80 was added to help dissolving). Dosage: 10 mg/Kg, dose volume: 0.4 mL/100 g, intragastric administration.
Every medicated group was assigned three rats.
After the experimental animals stable in the clean environment for 24 h, 10 μL of blood was withdrawn via tail vein and diluted into 2 mL of diluents quickly. […] Then the prepared drugs were administered intragastrically to the animals. […] The animals were killed after 24 h.

Procedure for SD rat heart rate: 2.1 Experimental animals: SD rats, purchased from Weitonglihua. Weight: 200-240 g, male. Every test group was assigned three rats. The normal rats were set as control group and determined as the medicated group parallelly for three times. The positive drug FTY720 was repeated three times.
2.2 Apparatus: Intelligent non-invasive blood pressure measurement meter (Softron, Japan).
(1) Preparation: The drug was dissolved to reach a concentration of 2.5 mg/mL.
(1) Determination of rat heart rate before administration. Repeat for three times.
(2) Administration: intragastric administration after SD rats weighed.
(3) Determination of rat heart rate at the time 0.5 h, 1 h, 3 h, 6 h, 8 h and 24 h after administration. Repeat for three times
Every drug was tested with three SD rats parallelly. […] Delta % of heart rate=(the lowest heart rate postdose−the heart rate pre-administration)/the heart rate pre-administration, reflects the influence of drugs on rat heart rate.

Take `CCCCCCC(=O)CCCCCC/C=C/C[C@@H](O)[C@H](O)[C@@](N)(CO)C(=O)O` [ISP-I, myriocin]: the “activity relative to cyclosporine” value in series [1] was 10 fold.
As to `CCCCc1ccc(Oc2ccc(CCC(N)(CO)CO)cc2)cc1` [Syl926], in the series on SD rat heart rate, the HR delta % is given as 9.60%, the “heart rate 0.5 h” value was determined as 361.91, the “heart rate 1 h” value is given as 346.80 and the “heart rate 3 h” value worked out at 327.09. In the series with SD rat heart rate, the “heart rate 6 h” value was found to be 340.82, the “heart rate 8 h” value was 318.55, the “heart rate 24 h” value was determined as 354.80 and the heart rate pre-administration is recorded as 352.85. In series [2], the “LYM 0 h” value is given as 5.17 ± 2.12 × 10^9/L, the “LYM 1 h” value is 3.40 ± 0.20 × 10^9/L, the “LYM 2 h” value is 2.57 ± 0.84 × 10^9/L and the “LYM 4 h” value is given as 2.33 ± 0.90 × 10^9/L. Moreover, in series [2], the “LYM 8 h” value is 1.40 ± 0.79 × 10^9/L, the “LYM 12 h” value is 1.33 ± 0.42 × 10^9/L, the “LYM 24 h” value is given as 1.37 ± 0.31 × 10^9/L and the “compared with 0 h (%) 1 h” value is given as 34.19%. Moreover, in series [2], the “compared with 0 h (%) 2 h” value is 50.32%, the “compared with 0 h (%) 4 h” value is reported as 54.84%, the “compared with 0 h (%) 8 h” value is given as 72.90% and the “compared with 0 h (%) 12 h” value is listed as 74.19%. In addition, in series [2], the “compared with 0 h (%) 24 h” value was found to be 73.55%.
Take `CCc1nc(-c2ccc(Oc3ccc(CCC(N)(CO)CO)cc3)cc2)co1` [Syl934]: in the series on SD rat heart rate, the HR delta % worked out at 2.4%, the “heart rate 0.5 h” value stood at 376.00, the “heart rate 1 h” value is on record as 369.10 and the “heart rate 3 h” value was 337.86. In addition, in the series on SD rat heart rate, the “heart rate 6 h” value is listed as 338.09, the “heart rate 8 h” value is recorded as 362.55, the “heart rate 24 h” value is 365.89 and the heart rate pre-administration amounted to 346.00. Further, in series [2], the “LYM 0 h” value is 4.17 ± 0.40 × 10^9/L, the “LYM 1 h” value is reported as 3.60 ± 0.69 × 10^9/L, the “LYM 2 h” value is listed as 2.47 ± 0.23 × 10^9/L and the “LYM 4 h” value is recorded as 2.87 ± 0.55 × 10^9/L. In series [2], the “LYM 8 h” value is on record as 1.83 ± 0.68 × 10^9/L, the “LYM 12 h” value was 1.17 ± 0.49 × 10^9/L, the “LYM 24 h” value is 1.33 ± 0.32 × 10^9/L and the “compared with 0 h (%) 1 h” value was determined as 13.60%. Also, in series [2], the “compared with 0 h (%) 2 h” value worked out at 40.80%, the “compared with 0 h (%) 4 h” value was found to be 31.20%, the “compared with 0 h (%) 8 h” value was found to be 56.00% and the “compared with 0 h (%) 12 h” value is 72.00%. In addition, in series [2], the “compared with 0 h (%) 24 h” value is on record as 68.00%.
On to `CC(C)c1nc(-c2ccc(Oc3ccc(CCC(N)(CO)CO)cc3)cc2)co1` [Syl935], for which, in the series on SD rat heart rate, the HR delta % turned out to be 15.90%, the “heart rate 0.5 h” value is 387.18, the “heart rate 1 h” value is reported as 405.20 and the “heart rate 3 h” value amounted to 384.20. Further, in the series on SD rat heart rate, the “heart rate 6 h” value worked out at 352.44, the “heart rate 8 h” value came to 373.33, the “heart rate 24 h” value is given as 398.50 and the heart rate pre-administration stood at 419.00. Also, in series [2], the “LYM 0 h” value is reported as 4.77 ± 0.21 × 10^9/L, the “LYM 1 h” value is reported as 3.73 ± 1.23 × 10^9/L, the “LYM 2 h” value is given as 2.70 ± 1.05 × 10^9/L and the “LYM 4 h” value is recorded as 2.77 ± 0.72 × 10^9/L. In series [2], the “LYM 8 h” value was 2.10 ± 0.36 × 10^9/L, the “LYM 12 h” value is recorded as 1.17 ± 0.31 × 10^9/L, the “LYM 24 h” value is 1.73 ± 0.29 × 10^9/L and the “compared with 0 h (%) 1 h” value amounted to 21.68%. Also, in series [2], the “compared with 0 h (%) 2 h” value stood at 43.36%, the “compared with 0 h (%) 4 h” value is on record as 41.96%, the “compared with 0 h (%) 8 h” value came out at 55.94% and the “compared with 0 h (%) 12 h” value came out at 75.52%. Moreover, the “compared with 0 h (%) 24 h” value in series [2] is 63.64%.
